Measured values: patent US20040237845A1 (priority 2002, published 2004)

Type: physicochemical
Conditions: kaolin clay slurry, no further addition of acid or chlorine donor

## Sodium Chlorite [stabilized chlorine dioxide]
  persistence of oxidizing/biocidal effects: up to 14 days
